How the values were obtained:
Format in all cases: in vivo, mouse
[1] = system: Pten^pc−/−; Zbtb7a^pc−/− tumors (anterior prostate lobes); experiment: Histological analysis of treated Pten^pc−/−; Zbtb7a^pc−/− tumors; settings: Zbtb7a^pc−/− mice, 10 days of i.p. treatment, versus vehicle or control IgG
Experimental: (§1) Mice were allocated at random to experimental groups and studies were performed in an unblended manner. For treatment with the CXCR2 antagonist, SB225002 (Cayman Chemical #13336) was dissolved in DMSO (10 mg/ml) and diluted in vehicle (0.9% NaCl, 0.3% Tween 80) for in vivo administration. Mice (4 months of age) were treated daily for 10 days by intraperitoneal injection (5 mg/kg) and prostate tumor tissue (anterior lobes) was subjected to Flow Cytometry and histological analysis. For MRI analysis, mice (4 months of age) were treated daily for 21 days (Pten^pc−/−; Zbtb7a^pc−/−), for 14 days (Pten^pc−/−; Trp53^pc−/−) or for 14 days (Pten^pc−/−; Pml^pc−/−) by intraperitoneal injection (5 mg/kg). […] Tumor volume quantification was performed by using VivoQuant and Image J software. […]
For western blotting, cell lysates were prepared by homogenizing tumor tissue with NP40 Buffer (Boston Bioproducts) supplemented with protease (Roche) and HALT phosphatase inhibitor cocktails (Thermo Scientific) and subsequently subjected to SDS-Gel separation (Invitrogen) and western blotting. […] Western blots were quantified using Image J software. […] Embedding and hematoxylin and eosin staining of sections were performed by the Histology Core at BIDMC and analyzed by a pathologist. […]

[2] = system: Pten^pc−/−; Zbtb7a^pc−/− prostate tumors; experiment: Flow cytometry of immune infiltrate in treated Pten^pc−/−; Zbtb7a^pc−/− prostate tumors; settings: Zbtb7a^pc−/− prostate tumors after treatment
Experimental: as §1, with “mg/kg). For depletion of Gr-1+/CD11b+ cells, Ly6G-depletion antibody (1A8, BioXcell) and control Rat IgG2a antibody (BioXcell) were diluted in phosphate-buffered saline (PBS) for in vivo administration. Mice (4 months of age) were treated every other day for 10 days by intraperitoneal injection (200-300 μg/mouse).” for “mg/kg).”
(§2) For Flow Cytometry, spleen and lymph node single cell suspensions were prepared by mashing the tissue in 2% FBS/PBS. […] All staining mixtures were analyzed on a BD LSR II flow cytometer (Becton Dickinson). Resulting profiles were further processed and analyzed using the FlowJo 8.7 software.

[3] = system: Pten^pc−/−; Pml^pc−/− prostate tumors; experiment: Flow cytometry of immune infiltrate in treated Pten^pc−/−; Pml^pc−/− prostate tumors; settings: Pml^pc−/− prostate tumors after treatment
Experimental: as §1, with “mg/kg). For depletion of Gr-1+/CD11b+ cells, Ly6G-depletion antibody (1A8, BioXcell) and control Rat IgG2a antibody (BioXcell) were diluted in phosphate-buffered saline (PBS) for in vivo administration. Mice (4 months of age) were treated every other day for 10 days by intraperitoneal injection (200-300 μg/mouse).” for “mg/kg).”
as §2

O=C(Nc1ccc([N+](=O)[O-])cc1O)Nc1ccccc1Br [SB225002]
tumor burden by histological analysis [1]: reduced tumor burden
tumor burden by histological analysis ([1]; listed as CXCR2 inhibitor): significantly diminished tumor involvement
intra-tumoral Gr-1+/CD11b+ cells [2]: decrease of Gr-1+/CD11b+ cells
intra-tumoral Gr-1+/CD11b+ cells [3]: decrease of Gr-1+/CD11b+ cells
